{
  "source": "patent US20030022926A1",
  "about": "“Method for treating neuropathic pain and pharmaceutical preparation therefor” (priority 2001, published 2003)",
  "key": {"[1]": {"test_system": "phosphorylated cAMP response element binding protein (pCREB)", "protocol": "The L4-5 spinal cord segments and the ipsilateral and contralateral sciatic nerve segments at both proximal and mid-thigh levels were removed and postfixed in the same fixative for 3-6 hours. Then all tissues were transferred to 30% sucrose in 0.1 M PB at 40° C. for cryoprotection. The spinal cord segments were cut on a cryostat at a 40 μm thickness. The free-floating sections were collected in PBS. After being pre-treated with 0.3% H 202 and 10% normal goat serum (NGS, Vector Laboratories, Burlingame, Calif.), sections were incubated for 36 hours at 40° C. in a rabbit polyclonal anti-phospho-CREB antibody (1:1,000, New England Biolabs, Beverly, Mass., U.S.A.) diluted in phosphate buffered saline containing 0.3% Triton-×100 (PBS+T) and 3% NGS. Subsequently, the sections were incubated in biotinylated goat anti-rabbit IgG (Vector) and further processed using Elite Vectastain ABC kit (Vector) according to the instructions of the manufacturer. Between each incubation, sections were washed in PBS+T (15 min twice). Finally, the immunoprecipitates were developed by 3,-3′ diaminobenzedine (DAB) and the chromogen was enhanced by the glucose oxidase-nickel-3,-3′ DAB method.\nImages of both ipsilateral and contralateral dorsal horns of nerve injured rats or from the dorsal horn of normal rats were captured at ×250 magnification using a CCD camera. In a given area (235 μm×235 μm), which covered the entire LI to LII in depth and was located in the middle one third of the mediolateral extent of the dorsal horn, the number of pixels occupied by pCREB-IR cells on each side was measured automatically using image analysis software (SigmaScan, Jandel Scientific Inc., San Rafael, Calif., U.S.A.). Values are expressed as mean+SEM. Groups were compared using two-way ANOVA followed by Dunnett's or Fishers LSD test. To compare the mean number of the pixels occupied by pCREB-IR cells between two-side dorsal horn, a paired t-test or one-way ANOVA with Student-Newman-Keuls multiple comparison method was used. P<0.05 was considered significant."}, "[2]": {"experimental": "(§1) The rats were anesthetized with 4% halothane inhaled concentration in 100% oxygen by face mask. An unilateral percutaneous sciatic nerve block was then performed on the right ligated side. A 25-gauge needle was introduced between the greater trochanter and the ischial tuberosity, both landmarks previously localized by palpation, according to the technique reported by Thalhammer (Thalhammer JG, et al Neurologic evaluation of the rat during sciatic nerve block with lidocaine. Anesthesiology. 1995 Apr;82(4):1013-25). Different mixtures of saline and alpha-2-adrenergic agonist were then injected in a total volume of 0.3 ml."}, "[3]": {"test_system": "mechanical allodynia in rats with partial ligation of sciatic nerve", "description": "A validated animal model of neuropathic pain was used that results from a partial ligation of one sciatic nerve in rat (Seltzer 1990). Nerve ligation and subsequent edema represents an experimental model for mechanisms operative in both nociceptive nerve pain and pain due to partial deafferentation (Asbury A, Fields H. Pain due to peripheral nerve damage: an hypothesis. Neurology 1984; 34: 1587-1590). This model thereby closely mimics the clinical situation found in several cancerous patients.\n(§2) After Institutional Animal Care Committee approval, adult male Wistar rats (Hanovre, weight 150 -180 g) underwent partial sciatic nerve ligation of the right sciatic nerve as described by Seltzer et al (Seltzer 1990). Briefly, under halothane anesthesia, the right sciatic nerve was exposed at high-thigh level and liberated from surrounding tissues. One third to one half of the nerve was then tightly ligated with silicon-treated silk suture (Prolene 7-0) before those muscle and skin layers were closed. The animals were allowed to recover for four to six weeks, lag of time sufficient to develop neuropathic pain features.\nMechanical allodynia was assessed by application of calibrated Von Frey filaments (Stoelting, Wood Dale, Ill.), ranging from 1.2 g to 28.8 g.\nThe animals were placed on a plastic mesh floor into individual boxes. After accommodation to the environment, the Von Frey filaments were applied vertically to the plantar surface of the ligated hind paw and gently bent 3-4 times over approximately 2 sec. if no response was elicited, a larger filament was applied in the same manner. The filaments were applied in increasing order until a brisk withdrawal or paw flinching occurred, that was considered as a positive response. The filament applications were repeated three times, with five to ten minutes interval between testing. The withdrawal threshold was determined as the mean of the three values.\n(§3) Only the animals which had developed satisfactory Mechanical Allodynia and Thermal Hyperalgesia were used to assess the efficacy of peripheral nerve blockade.\nas §1\nA single sciatic block (SB) injection of the following drugs was realized: Saline (n=6), Saline and intramuscular (IM) clonidine 30 μg (n=11), Clonidine 15 μg (n=8), Clonidine 3 μg (n=9). The drug used in the study for peripheral nerve block was: clonidine marketed for clinical use (Catapressan®, Boehringer Ingelheim). The drug was diluted in isotonic saline.\nThe animals were tested as previously described for both Mechanical Allodynia and Thermal Hyperalgesia at day0 (5 hours after sciatic nerve injection), day 1, day 3, day 7, day 10, day 14 and day 21 post drug injection.\nFor Mechanical Allodynia, Paw withdrawal threshold (PWT) values were converted to percent of maximum possible effect (% MPE), according to the formula:\n% MPE=(post-drug infiltration threshold−baseline post-ligation threshold)/(pre-ligation threshold−baseline post-ligation threshold)×100\nValues are expressed as mean±SD. The percent maximum possible effect data were used to calculate the respective ED50 values of clonidine and clonidine combinations using linear regression."}, "[4]": {"test_system": "thermal hyperalgesia in rats with partial ligation of sciatic nerve", "conditions": "ligated side", "description": "as §2, §3\nas §1, with “Different mixtures of saline and alpha-2-adrenergic agonist were then injected in a total volume of 0.3 ml.” left out\nValues are expressed as mean±SD."}, "neuropathic pain": {"test_system": "neuropathic pain", "description": "The patient was then referred to the Pain Clinic to benefit from neuraxial analgesia (either epidural or intrathecal catheter placement). However, long-term spinal catheter is not devoid of side effects, both related to the technique, especially the risk of infection and to the drugs used."}, "[5]": {"conditions": "ipsilateral and contralateral, compared to saline controls (p<0.001)"}, "[6]": {"conditions": "one week after single peripheral nerve injection at the injury site, 30 mg as printed"}},
  "note": "Where two headings read alike, the source gives them in different places.",
  "data": [
    {"smiles": "Clc1cccc(Cl)c1NC1=NCCN1", "note": "[clonidine, N-(2,6-dichlorophenyl)-4,5-dihydro-1H-imidazol-2-amine]", "values": [
      {"measurement": "mean number of pixels in a fixed area occupied by pCREB-IR cells in the dorsal horn", "setting": "[1]; [5]", "value": "significantly reduced"},
      {"measurement": "mean optical density in a fixed area occupied by pCREB-IR cells in the dorsal horn", "setting": "[1]; [5]", "value": "significantly reduced"},
      {"measurement": "increase in pCREB-IR cells in the ipsilateral dorsal horn", "setting": "[1]; [6]", "value": "dramatically suppressed"},
      {"measurement": "number of pCREB-IR cells in the contralateral dorsal horn", "setting": "[1]; [6]", "value": "markedly reduced"},
      {"measurement": "sedation", "setting": "[2]; after clonidine injection in rats", "value": "mild transitory sedation"},
      {"measurement": "motor blockade or motor deficit", "setting": "[2]; peripheral sciatic nerve block in rats", "value": "did not result into motor blockade or subsequent motor deficit"},
      {"measurement": "PWT values (Paw Withdrawal threshold)", "setting": "[3]; intramuscular (IM) clonidine 30 μg, D0 (5 h)", "value": "2.6 ± 1.8", "unit": "g"},
      {"measurement": "PWT values (Paw Withdrawal threshold)", "setting": "[3]; intramuscular (IM) clonidine 30 μg, D1", "value": "7.9 ± 4.2", "unit": "g"},
      {"measurement": "PWT values (Paw Withdrawal threshold)", "setting": "[3]; intramuscular (IM) clonidine 30 μg, D3", "value": "4.3 ± 2.8", "unit": "g"},
      {"measurement": "PWT values (Paw Withdrawal threshold)", "setting": "[3]; intramuscular (IM) clonidine 30 μg, D7", "value": "5.2 ± 2.8", "unit": "g"},
      {"measurement": "PWT values (Paw Withdrawal threshold)", "setting": "[3]; intramuscular (IM) clonidine 30 μg, D10", "value": "3.6 ± 2.3", "unit": "g"},
      {"measurement": "PWT values (Paw Withdrawal threshold)", "setting": "[3]; intramuscular (IM) clonidine 30 μg, D14", "value": "2.0 ± 3.3", "unit": "g"},
      {"measurement": "PWT values (Paw Withdrawal threshold)", "setting": "[3]; intramuscular (IM) clonidine 30 μg, D21", "value": "3.6 ± 1.4", "unit": "g"},
      {"measurement": "peak effect on mechanical allodynia, day post injection", "setting": "[3]; peripheral sciatic block 3 to 30 μg, four to six weeks after nerve injury", "value": 7, "unit": "days"},
      {"measurement": "Maximal effect in alleviating Mechanical Allodynia", "setting": "[3]; sciatic block 3 μg, at D1", "value": "34.2±5.1", "unit": "% MPE"},
      {"measurement": "Maximal effect in alleviating Mechanical Allodynia", "setting": "[3]; sciatic block 15 μg, at D3", "value": "40.5±6.4", "unit": "% MPE"},
      {"measurement": "Maximal effect in alleviating Mechanical Allodynia", "setting": "[3]; sciatic block 30 μg, at D7", "value": "76.6±9.2", "unit": "% MPE"},
      {"measurement": "PWT values (Paw Withdrawal threshold)", "setting": "[3]; sciatic block (SB) 3 μg, D0 (5 h)", "value": "4.7 ± 4", "unit": "g"},
      {"measurement": "PWT values (Paw Withdrawal threshold)", "setting": "[3]; sciatic block (SB) 3 μg, D1", "value": "12.0 ± 4", "unit": "g"},
      {"measurement": "PWT values (Paw Withdrawal threshold)", "setting": "[3]; sciatic block (SB) 3 μg, D3", "value": "10.3 ± 5", "unit": "g"},
      {"measurement": "PWT values (Paw Withdrawal threshold)", "setting": "[3]; sciatic block (SB) 3 μg, D7", "value": "8.2 ± 4", "unit": "g"},
      {"measurement": "PWT values (Paw Withdrawal threshold)", "setting": "[3]; sciatic block (SB) 3 μg, D10", "value": "7.0 ± 3", "unit": "g"},
      {"measurement": "PWT values (Paw Withdrawal threshold)", "setting": "[3]; sciatic block (SB) 3 μg, D14", "value": "5.0 ± 2", "unit": "g"},
      {"measurement": "PWT values (Paw Withdrawal threshold)", "setting": "[3]; sciatic block (SB) 3 μg, D21", "value": "4.3 ± 1", "unit": "g"},
      {"measurement": "PWT values (Paw Withdrawal threshold)", "setting": "[3]; sciatic block (SB) 15 μg, D0 (5 h)", "value": "4.8 ± 2", "unit": "g"},
      {"measurement": "PWT values (Paw Withdrawal threshold)", "setting": "[3]; sciatic block (SB) 15 μg, D1", "value": "12.6 ± 6", "unit": "g"},
      {"measurement": "PWT values (Paw Withdrawal threshold)", "setting": "[3]; sciatic block (SB) 15 μg, D3", "value": "12.9 ± 5", "unit": "g"},
      {"measurement": "PWT values (Paw Withdrawal threshold)", "setting": "[3]; sciatic block (SB) 15 μg, D7", "value": "8.8 ± 3", "unit": "g"},
      {"measurement": "PWT values (Paw Withdrawal threshold)", "setting": "[3]; sciatic block (SB) 15 μg, D10", "value": "9.7 ± 4", "unit": "g"},
      {"measurement": "PWT values (Paw Withdrawal threshold)", "setting": "[3]; sciatic block (SB) 15 μg, D14", "value": "6.4 ± 3", "unit": "g"},
      {"measurement": "PWT values (Paw Withdrawal threshold)", "setting": "[3]; sciatic block (SB) 15 μg, D21", "value": "3.7 ± 1", "unit": "g"},
      {"measurement": "PWT values (Paw Withdrawal threshold)", "setting": "[3]; sciatic block (SB) 30 μg, D0 (5 h)", "value": "9.3 ± 6", "unit": "g"},
      {"measurement": "PWT values (Paw Withdrawal threshold)", "setting": "[3]; sciatic block (SB) 30 μg, D1", "value": "14.7 ± 10", "unit": "g"},
      {"measurement": "PWT values (Paw Withdrawal threshold)", "setting": "[3]; sciatic block (SB) 30 μg, D3", "value": "23.7 ± 11", "unit": "g"},
      {"measurement": "PWT values (Paw Withdrawal threshold)", "setting": "[3]; sciatic block (SB) 30 μg, D7", "value": "23.0 ± 7", "unit": "g"},
      {"measurement": "PWT values (Paw Withdrawal threshold)", "setting": "[3]; sciatic block (SB) 30 μg, D10", "value": "11.9 ± 3", "unit": "g"},
      {"measurement": "PWT values (Paw Withdrawal threshold)", "setting": "[3]; sciatic block (SB) 30 μg, D14", "value": "11.4 ± 4", "unit": "g"},
      {"measurement": "PWT values (Paw Withdrawal threshold)", "setting": "[3]; sciatic block (SB) 30 μg, D21", "value": "7.8 ± 3", "unit": "g"},
      {"measurement": "effect of single peripheral sciatic block on mechanical allodynia (in words)", "setting": "[3]; single sciatic block, neuropathic rats", "value": "significantly alleviated mechanical allodynia"},
      {"measurement": "maximal antiallodynic effect", "setting": "[3]; systemic injection (IM) 30 μg, at day 0 (5 hours post-sciatic blockade)", "value": "20.7±5.7", "unit": "% MPE"},
      {"measurement": "effect of peripheral nerve block on thermal hyperalgesia (in words)", "setting": "[4]", "value": "alleviated the thermal hyperalgesia in a dose-related manner"},
      {"measurement": "duration of strong alleviation of neuropathic pain after a single femoral block injection", "setting": "neuropathic pain; clonidine alone", "value": "more than ten"},
      {"measurement": "onset of the antihyperalgesic effect", "setting": "neuropathic pain; clonidine alone, femoral block", "value": "four to five"},
      {"measurement": "efficacy of clonidine alone versus initial mixture", "setting": "neuropathic pain; femoral block, local anesthetic and steroid withdrawn", "value": "as effective as previous combination"},
      {"measurement": "tolerance on repetitive blocks", "setting": "neuropathic pain; repetitive peripheral nerve blocks in the cancerous patient", "value": "without apparition of tolerance"}
    ]}
  ]
}
